Measured values published in patent publication US20070071773A1, “Compositions and methods for the treatment and prophylaxis of infections caused by gram positive bacteria” (priority 2002, published 2007).

How the values were obtained:
[1] = test system: serotype M14, M1 and M3 strains; assay: Neutrophil recruitment in mice challenged with different GAS serotypes; type: in vivo, Group A Streptococcus (GAS)
Description: The absence (M1 and M3) or mutation (M14) of the gene encoding the SilCR pheromone in those GAS strains may eliminate a counter-regulatory mean to a GAS chemokine proteolysis, resulting in an increased virulence potential for invasive soft tissue infections.

M3 strain = assay: Murine NF model: lesions after challenge with an M3 strain; type: in vivo, Group A Streptococcus (GAS); conditions: SilCR injected together with an M3 strain (data not shown)
GAS strain JS95 = assay: Bacterial growth inhibition (disks on blood-agar plate; THY medium); type: cell-based, Group A Streptococcus (GAS)
Procedure: One thousands to 1500 CFU of GAS strain JS95 were spread on the surface of a blood-agar plate, incubated at room temperature and disks with different concentrations of antibiotic (control) or peptide (25, 50 and 200 μg) were placed on the surface. The plates were incubated at 37° C. for 16 hours. Areas with no hemolysis (N. hemo.) indicate inhibition of GAS growth by antibiotics. Area with hemolysis (hemo.) indicates GAS growth in the presence of 200 μg of the peptide.
The inventors next examined whether the 17 amino acid peptide of the invention protects mice challenged with highly virulent strains by inhibition of bacterial growth. Different concentrations (1000-1500 CFU) of GAS strain JS95 were spread on the surface of a blood-agar plate and incubated at room temperature. Disks loaded with different concentrations of antibiotics (control) or peptide (25, 50 and 200 μg) were placed on the surface. […] 178:6087-6090 (1996); Havarstein, et al. J. Bacteriol. 179:6586-6584 (1997)] it is plausible that the peptide acts on a TCS. This in turn activates a signal transduction process in the bacteria leading to attenuation of virulence.

[2] = test system: trypsin-like GAS protease; assay: Degradation of IL-8 by JS95 supernatant (Western blot, ELISA); type: biochemical, Group A Streptococcus (GAS); conditions: supernatant of JS95 grown without SilCR, 50 μg/ml SilCR added to the assay; FIG. 14
Procedure: (§1) […] was grown in the absence and presence of SilCR (50 μg/ml). IL-8 was incubated with the indicated supernatant fractions and then subjected to 18% SDS-PAGE. The separated protein bands were electro-transferred to a nitrocellulose membrane. Anti-IL-8 antibody and a secondary antibody conjugated to horseradish peroxidase were used to detect IL-8. The number of the lane represents incubation of IL-8 with: 1, DMEM+FCS (control); 2, JS95 supernatant; 3, JS95 supernatant grown in the presence of SilCR; 4, JS95 supernatant, pretreated with pefabloc SC; 5, supernatant of JS95 grown in the absence of SilCR, then 50 μg/ml of SilCR was added to the degradation assay.
(§2) 15A The column numbers represent the ELISA results after incubation of IL-8 with: 1, DMEM+FCS (control); and the supernatants of: 2, JS95; 3, JS95 grown in the presence of SilCR; 4, JS95 pretreated with aprotenin; 5, JS95 pretreated with soybean trypsin inhibitor; 6, JS95 pretreated with benzamidine. The background of the ELISA assay (0.08±0.004) was subtracted from the shown results. The data represent the mean ± SD, of three separate experiments.
A. Cell culture of JS95 strain was grown in THY to an OD600 of 0.2. To determine the effect of SilCR on chemokine proteolysis, the culture was split into two equal fractions, of which one received SilCR (25 μg/ml). Both fractions were further incubated until they reached an OD600 of 0.3. Bacteria were washed twice with sterile PBS and once with DMEM containing 10% FCS. The washed pellets were re-suspended in DMEM supplemented with FCS to their original volumes. SilCR (50 μg/ml) was added to the fraction that was grown in the presence of SilCR, and the two fractions were further incubated for 1 h at 37° C. Supernatants were collected after centrifugation. The proteolysis reaction contained: 0.08 ml of each supernatant, 100 ng of recombinant human IL-8/CXCL8 (R&D systems, Minneapolis, Minn.) or 30 ng of recombinant murine MIP-2 (R& D systems, Minneapolis, Minn.), 20 mM MOPS pH=7.2 in a final volume of 0.1 ml. The reaction was conducted for 1 h at 37° C., and stopped by boiling for 1 min.
B. For testing protease inhibitors, the supernatants were pre-incubated with the inhibitor for 30 min at 37° C., followed by the proteolysis reaction. The following concentrations of inhibitors were used: 4 mM pefabloc SC; 0.5 mM PMSF; 0.3 μM aprotinin; 1 mM benzamidine; 100 μg/ml soybean trypsin inhibitor (STI).
(§3) C. Proteolysis of chemokines was determined by ELISA and Dot-blot. IL-8 content was quantified by ELISA using the Quantikine kit for determination of human IL-8 (R&D Systems, Minneapolis, Minn.) according to the manufacturer's instructions.

JS95 = assay: IL-8 proteolytic activity of supernatant of JS95 grown in the presence of SilCR; type: cell-based, Group A Streptococcus (GAS); conditions: JS95 grown in the presence of SilCR (25 then 50 μg/ml); FIG. 15A
Procedure: as §1
as §2, with “experiments. […]” for “experiments.”
as §3

DIFKLVIDHISMKARKK (SilCR peptide) [17 amino acid synthetic peptide, predicted mature form of the pheromone peptide encoded by the SilCR ORF; used at 70% or 90% purity]
neutrophil recruitment [1]: improved neutrophil recruitment
lesions (M3 strain): reduced lesions
inhibition of GAS growth (GAS strain JS95; THY medium and blood agar plates): does not inhibit GAS growth
bacterial growth around disk (GAS strain JS95; disks with peptide up to 200 μg on blood-agar plate, 1000-1500 CFU JS95, 37° C. 16 hours, FIG. 10): bacterial growth was observed
IL-8 proteolysis with purified peptide added to the degradation assay [2]: did not itself block IL-8 proteolysis
IL-8 proteolytic activity of the strain (JS95): markedly reduced
